Common to all, as to assay type: cell-based
The subject of data set [1] is sheep erythroid PMs. The data set is described as follows: Hemolysis assay. Conditions: AMB conc. 0.25 µM; sheep RBCs; 1% SDS = 100% hemolysis. On the procedure: To examine any possible toxic effect towards animal cells, ILs were tested for their lytic activity on sheep erythroid PMs, in comparison to AMB (Table 3). For this part of study, higher concentrations were selected, corresponding to MFC values of tested fungi (12.5; 25 and 50 µM in case of ILs, and 0.25; 0.5 and 1 µM in case of AMB, Table 1). The compounds were ranked in terms of hemolytic activity as follows: 1a > 1b > 2a. IL with alkoxymethyl chain (2a) produced <5% hemolysis, regardless of the concentration used. Compounds with alkyl substituents (1a and 1b) were more hemolytic in 12.5 than in 25 µM concentrations, and in the highest concentration (50 µM), both compounds produced >10% and >5% hemolysis, respectively.
ILs were tested for hemolytic activity, as described previously. Briefly, 5 mL of fresh sheep blood was centrifuged (2000 rpm, 15 min), washed with PBS and resuspended in PBS to achieve hematocrit level of 50%. Red blood cells (RBCs) were treated with ILs (concentrations = 12.5, 25 and 50 µM) for 2 h at 37 °C. Afterwards, RBCs were centrifuged (2000 rpm, 5 min) and the absorbance of the supernatant was measured at 540 nm (ASYS UVM 340 Biogenet). The percentage of hemolysis was determined in comparison to the hemoglobin absorbance released by a 1% SDS solution (100% hemolysis).

Data set [2] relates to C. albicans. Description: Detachment of adherent cells from polystyrene (crystal violet). Conditions: C. albicans on polystyrene, 2 h treatment; highest concentration (4 × MIC). On the procedure: (§1) Thus, for the evaluation of ILs on fungal adhesion, higher concentrations were used, corresponding to 1, 2 and 4 times the MIC90 values (Figure 1).
(§2) Figure 1 Detachment of adherent Candida spp. cells after 2 h incubation on polystyrene surfaces by ionic liquids (ILs) (A) or amphotericin B (AMB) (B) (means ± SD; n = 3). Results are presented as percentage of adherent cells relative to untreated controls (100% adhesion). Statistical analysis of detachment at each concentration was performed towards corresponding control experiments (fungi untreated by ILs or AMB = 100% adhesion) (*, p < 0.05 and **, p < 0.01).
(§3) Post-adherence treatment with ILs was performed in a similar manner to that described previously by our team. Candida spp. suspensions were prepared by centrifuging YPD-grown cultures and resuspending fungal mass in PBS to an OD600 = 0.6. Sterile 96-well plates were inoculated with the prepared suspensions and incubated for 2 h at 37 °C to induce fungal adhesion. Afterwards, adherent cells were washed with PBS to remove planktonic cells and treated with ILs (concentrations equivalent to 1, 2 or 4 × MIC90 for each fungi) for 2 h at 37 °C. Then, each well was washed with PBS and adherent cells were fixed with 0.1% CV solution for 5 min, and washed with PBS. Cells were then treated with a solution of isopropanol 0.04 N HCL with 0.1% SDS to permeabilize adherent cells and release the CV dye. The absorbance of CV was measured at 590 nm (ASYS UVM 340 Biogenet). The percentage of cells that were removed was determined in comparison to adherent cells treated with PBS only (designated 100% adhesion).

Data set [3] deals with C. glabrata. The data set is described as above. Conditions: C. glabrata on polystyrene, 2 h treatment; highest concentration (4 × MIC). The procedure:
as §1, §2, §3

In data set [4] the test system is C. parapsilosis. Described as above. Conditions: C. parapsilosis on polystyrene, 2 h treatment; highest concentration (4 × MIC). The procedure:
as §1, §2, §3

Data set [5] deals with C. krusei. The description is as above. Conditions: C. krusei on polystyrene, 2 h treatment; highest concentration (4 × MIC). The procedure:
as §1, §2, §3

In data set [6] the test system is C. glabrata ATCC90030. The data set is described as follows: Minimal inhibitory and fungicidal concentrations (broth microdilution, CLSI M27-A3 modified). To be noted: Nakaseomyces glabratus, 28 °C. On the procedure: (§4) Experiments were performed according to the Clinical and Laboratory Standards Institute (2008), 3rd ed. M27-A3 [51], with modifications described previously. Briefly, MICs were determined by serially diluting ILs in YPD medium in sterile 96-well plates (Sarstedt) and inoculating with fungal suspensions (final OD600 per well = 0.01). After incubation (48 h; 28 °C), the OD600 was measured (ASYS UVM 340 Biogenet). […] Each well was then replated on YPD agar and incubated for 5 days at 28 °C.
(In general: Dilution methods test growth across graded concentrations, often in twofold steps.)

Data set [7] relates to C. krusei ATCC6258. The description is as above. Conditions: Pichia kudriavzevii, 28 °C. On the procedure: as §4
The subject of data set [8] is C. albicans SC5314. Described as above. To be noted: Candida albicans, 28 °C. On the procedure:
as §4

Data set [9] deals with C. parapsilosis CBS10947. The data set is described as above. To be noted: Lodderomyces parapsilosis, 28 °C. The procedure: as §4
Data set [10] has as its system C. albicans. The data set is described as follows: Plasma membrane permeabilization (propidium iodide staining). To be noted: 2 h treatment at MIC90, PI staining, mean ± SD, n = 3. The procedure: (§5) We tested ILs for their activity in permeabilizing fungi plasma membranes (PMs), by treating cells with concentrations of ILs corresponding to their MIC90 values (Table 2).
(§6) The assessment of PM permeability was performed as described previously, with modifications. Briefly, 3 mL of Candida spp. cell suspensions (OD600 = 0.1) in PBS were mixed with ILs (concentrations equivalent to MIC90 against each fungi). Samples were incubated for 2 h at 37 °C, washed with PBS and stained with PI to the final dye concentration of 6 × 10^−6 M for 5 min. Then, cell suspensions were washed with PBS and observed under the Zeiss Axio Imager A2 microscope equipped with the Zeiss Axiocam 503 mono microscope camera and Zeiss HBO100 mercury lamp. The percentage of permeabilized cells was evaluated by counting PI positive cells out of one hundred in three independent repetitions for each experiment.

In data set [11] the test system is C. glabrata. The data set is described as above. Conditions: 2 h treatment at MIC90, PI staining, mean ± SD, n = 3. The procedure:
as §5, §6

Data set [12] concerns C. parapsilosis. The description is as above. To be noted: 2 h treatment at MIC90, PI staining, mean ± SD, n = 3. The procedure:
as §5, §6

In data set [13] the test system is C. krusei. The data set is described as above. Conditions: 2 h treatment at MIC90, PI staining, mean ± SD, n = 3. On the procedure:
as §5, §6

Setting [14] is: 120 h, replated on YPD agar, 5 days, read-out: Minimal fungicidal concentration (MFC).
[15] abbreviates: ≥90% growth inhibition, 48 h, YPD, read-out: Minimal inhibitory concentration (MIC90).

Structures are written as SMILES. In brackets after ≈: the same amount, converted by molar mass.

In data set [1], `C[C@@H]1[C@H](O)[C@@H](C)/C=C/C=C/C=C/C=C/C=C/C=C/C=C/[C@H](O[C@@H]2O[C@H](C)[C@@H](O)[C@H](N)[C@@H]2O)C[C@@H]2O[C@](O)(C[C@@H](O)C[C@@H](O)[C@H](O)CC[C@@H](O)C[C@@H](O)CC(=O)O[C@H]1C)C[C@H](O)[C@H]2C(=O)O` [AMB, amphotericin B, reference compound] gave a Hemolytic activity of 86.7 ± 0.43 %. The Reduction of adhesion in data set [2] is ~ 27%; in data set [3] it was ~ 15%; in data set [4], ~ 20%; in data set [5], ~ 20%. For the same compound, the MFC amounted to 0.5 µM (≈ 0.462 µg/mL) in data set [6] (setting [14]), 1 µM (≈ 0.924 µg/mL) in [7] (setting [14]), 0.5 µM (≈ 0.462 µg/mL) in [8] (setting [14]) and 0.5 µM (≈ 0.462 µg/mL) in [9] (setting [14]). Moreover, the MIC90 in [6] (setting [15]) came to 0.25 µM (≈ 0.231 µg/mL); in data set [7] (setting [15]) it was 0.5 µM (≈ 0.462 µg/mL); in data set [8] (setting [15]), 0.25 µM (≈ 0.231 µg/mL); in data set [9] (setting [15]), 0.25 µM (≈ 0.231 µg/mL). Also, the “Percentage of cells with permeabilized PMs” value was 37.3 ± 4.17 % in data set [10], 43.2 ± 2.15 % in data set [11], 32.38 ± 3.15 % in data set [12] and 38.2 ± 10.7 % in data set [13].
